This is an account of results in patent publication US7417043B2, “Modulators of dopamine neurotransmission” (NeuroSearch Sweden AB, priority 1999, dated 2008).

Structures can show the parent of a compound that is named as a salt. Where only a bound is given, the exact number is not on record here.

One data set has as its system non-pre-treated rat. The experiment in a line: In vivo test: behavior, motility meter, non-pre-treated rats. The settings on record: for behavioral (motor) activity: 60 min session.
Data set [1] has as its system 3,4-dihydroxyphenylacetic acid in the striatum. The experiment in a line: In vivo test: neurochemistry, DOPAC in brain tissue. On the set-up: species or system rat. The note with it: for 3,4-dihydroxyphenylacetic acid in the striatum: rat. An excerpt:
(§1) In vivo Test: Neurochemistry
(§2) After the behavioral activity sessions the rats were decapitated and their brains rapidly taken out and put on an ice-cold petri-dish. The limbic forebrain, the striatum, the frontal cortex and the remaining hemispheral parts of each rat were dissected and frozen. Each brain part was subsequently analyzed with respect to its content of monoamines and their metabolites. The monoaminergic indices analyzed were dopamine (DA), 3,4-dihydroxyphenylacetic acid (DOPAC), homovanillic acid (HVA), 3-methoxytyramine (3-MT), serotonin (5-HT), 5-hydroxyindole acetic acid ([…]), and noradrenaline (NA).

Data set [2] deals with 5-hydroxyindoleacetic acid in the striatum. The experiment in a line: In vivo test: neurochemistry, 5-hydroxyindoleacetic acid in brain tissue. The settings on record: rat; for 5-hydroxyindoleacetic acid in the striatum: 50 μmol/kg s.c.
Text: as §1
as §2, with “(NA). All monoaminergic indices in the dissected tissue were analyzed by means of HPLC with electrochemical detection as described by Svensson K, et al., 1986, Naunynschmiedeberg's Arch Pharmacol 334: 234-245 and references cited therein.” for “(NA).”

The subject of data set [3] is rats pre-treated with d-amphetamine. The experiment in a line: In vivo test: behavior, d-amphetamine induced hyperactivity.
For data set [4], the system named is rats pre-treated with dizolcipine (Mk-801). The settings on record: Mk-801 0,7 mg/kg i.p.; test compound 50 μmol/kg sc.
For another data set, the system named is sigma receptor. The settings on record: 10 μmol/L, rat brain membranes.
The subject of a further data set is habituated rats. The settings on record: animals habituated to the motilitymeter box, 50 μmol/kg s.c.
In a further data set the test system is serotonin (5-HT). The experiment in a line: In vivo test: neurochemistry, serotonin in brain tissue. The note with it: rat, 50 μmol/kg s.c.
Text: as §1
as §2, with “(NA). All monoaminergic indices in the dissected tissue were analyzed by means of HPLC with electrochemical detection as described by Svensson K, et al., 1986, Naunynschmiedeberg's Arch Pharmacol 334: 234-245 and references cited therein.” for “(NA).”

The subject of data set [5] is serotonin behavioral syndrome. The experiment in a line: Serotonin behavioral syndrome. Format: in vivo. The settings on record: rat.
The target in the next data set is T1, 5-HT1A receptor (Homo sapiens, UniProt P08908).
T1 sequence (P08908 1-422): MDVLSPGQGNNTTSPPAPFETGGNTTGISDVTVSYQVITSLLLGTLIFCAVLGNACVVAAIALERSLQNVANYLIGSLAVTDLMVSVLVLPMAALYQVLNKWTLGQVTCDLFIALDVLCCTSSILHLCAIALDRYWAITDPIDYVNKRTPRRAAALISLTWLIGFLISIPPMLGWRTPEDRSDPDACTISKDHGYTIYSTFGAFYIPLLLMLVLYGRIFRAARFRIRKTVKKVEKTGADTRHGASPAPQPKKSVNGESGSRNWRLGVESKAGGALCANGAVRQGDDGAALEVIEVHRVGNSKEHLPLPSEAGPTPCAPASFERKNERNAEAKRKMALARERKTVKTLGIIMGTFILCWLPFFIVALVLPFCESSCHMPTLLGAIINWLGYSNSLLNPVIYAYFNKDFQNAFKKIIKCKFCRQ
The note with it: reported in WO 93/00313; cited from earlier work.

Where [6] appears, read: non-pre-treated rat, 50 μmol/kg s.c.
[7] abbreviates: non-pre-treated rat, 33 μmol/kg (s.c.).

What is called melting point is the temperature of the solid-liquid transition. The IC50 is the point on the concentration scale where inhibition reaches its midpoint.

The compound `CCCN1CCC(c2cccc(C(F)(F)F)c2)CC1` (as salt: HCl) returned a melting point of 195 °C. For the compound `CCCN1CCN(c2ccccc2OC)CC1` [1-(2-methoxy-phenyl)-4-propyl piperazine], in the data set with non-pre-treated rat (setting [6]), the “behavioral (motor) activity” value amounted to 67±34 cm/60 min. Further, the “3,4-dihydroxyphenylacetic acid in the striatum” value (“3,4-dihydroxyphenylacetic acid” below) in [1] (50 μmol/kg s.c.) stood at 3836±65 ng/g tissue.

For `CCCN1CCN(c2cccc(C#N)c2)CC1` [3-(4-Propyl-piperazine-1-yl)-benzonitrile], the behavioral activity in the data set with non-pre-treated rat (rat, 100 μmol/kg s.c.) came out at 634±266 cm/60 min. This compound also gave a 5-hydroxyindole acetic acid in data set [2] (100 μmol/kg s.c.) of 484±26 ng/g tissue. In data set [1] (100 μmol/kg s.c.), the “3,4-dihydroxyphenylacetic acid” value came to 4498±243 ng/g tissue. On to `CCCN1CCN(c2cccc(S(C)(=O)=O)c2)CC1` (as salt: HCl), for which the melting point was determined as 233 °C.

With `CC(C)N1CCC(c2cccc(S(C)(=O)=O)c2)CC1` (as salt: HCl) [Example 9, 1-Isopropyl-4-(3-methanesulfonyl-phenyl)-piperidine], the melting point came to 220 °C.

Regarding `CS(=O)(=O)c1cccc(N2CCN(CCO)CC2)c1` [2-[4-(3-methanesulfonyl-phenyl)piperazin-1-yl]-ethanol], the behavioral activity with non-pre-treated rat (setting [7]) turned out to be 3782±962 cm/60 min. For the same compound, the “3,4-dihydroxyphenylacetic acid” value in [1] (33 μmol/kg s.c.) is 1239±162 ng/g tissue.

Take `CCCN1CCN(c2cccc(OS(C)(=O)=O)c2)CC1` (as salt: fumarate) [Example 17, Methanesulfonic acid 3-(4-propyl-piperazin-1-yl)-phenyl ester]: the melting point lay within 143 to 144 °C. Regarding `CCCN1CCC(c2cccc(S(C)(=O)=O)c2)CC1` [Example 6, 4-(3-Methanesulfonyl-phenyl)-1-propyl-piperidine], the “behavioral (motor) activity” value in the data set with non-pre-treated rat (setting [6]) was found to be 2879±398 cm/60 min. Besides, in [3] (d-amphetamine 1.5 mg/kg s.c., test compound 50 μmol/kg s.c.), the d-Amphetamine hyperactivity is recorded as 1839±344 cm/60 min. In addition, the “behavioral activation induced by dizolcipine (Mk-801)” value in data set [4] is 18197±1389 cm/60 min. For the same compound, the “inhibition of [3H]-DTG binding” value with sigma receptor is listed as below 50%. Besides, the “4-dihydroxyphenylacetic acid in the striatum” value in data set [1] (habituated animals, 50 μmol/kg s.c.) is 2074±144 ng/g tissue. Also, the “3,4-dihydroxyphenylacetic acid” value in data set [1] (50 μmol/kg s.c.) worked out at 1703±19 ng/g tissue. The compound also yielded a behavioral activity with habituated rats of 1243±72 cm/60 min.

On to `Oc1cccc(C2CCN(Cc3ccccc3)CC2)c1` [3-(1-Benzyl-piperidin-4-yl)-phenol, 3-(1-benzyl-piperidin-4-yl)-phenol], for which, in the data set with serotonin (5-HT) (limbic region), the “serotonin in the limbic region (5-HT)” value worked out at 677±20 ng/g tissue. In [2], the “5-hydroxyindoleacetic acid in the striatum” value (shortened to “5-hydroxyindoleacetic acid”) was determined as 492±26 ng/g tissue. As for `Br.CCCN1CCC(c2cccc(O)c2)CC1` [preparation 14, 3-(1-Propyl-piperidin-4-yl)-phenol×HBr], in [1] (50 μmol/kg s.c.), the “3,4-dihydroxyphenylacetic acid” value is 1169±42 ng/g tissue.

For `CCCN1CCN(c2cccc(C(C)=O)c2)CC1` (as salt: oxalate), the melting point is 119 °C. For the compound `CS(=O)(=O)c1cccc(C2CCN(Cc3ccccc3)CC2)c1` [1-benzyl-4-(3-methanesulfonyl-phenyl)-piperidine], in data set [5], the serotonin behavioral syndrome result is reported as “induces the serotonin behavioral syndrome”. The “serotonin (5-HT)” value with serotonin (5-HT) was found to be 345±18 ng/g tissue. Also, the “5-hydroxyindoleacetic acid” value in data set [2] was determined as 487±7 ng/g tissue. Take `CCCN1CCN(c2cccc(C(F)(F)F)c2)CC1` [1-propyl-4-(3-triflouro-methyl-phenyl) piperazine]: in the data set on non-pre-treated rat (setting [6]), the “behavioral (motor) activity” value was 271±137 cm/60 min. Further, in data set [1] (50 μmol/kg s.c.), the “3,4-dihydroxyphenylacetic acid” value came to 3358±162 ng/g tissue. Consider `CCN1CCC(c2cccc(S(C)(=O)=O)c2)CC1` (as salt: HCl) [Example 8, 4-(3-Methanesulfonyl-phenyl)-1-ethyl-piperidine], for which the melting point was found to be 158 °C. The same measure, in the same setting: next, `CC(C)CN1CCC(c2cccc(S(C)(=O)=O)c2)CC1` (as salt: HCl) [Example 11, 1-Isobutyl-4-(3-methanesulfonyl-phenyl)-piperidine]: 212 °C. As to `FC(F)(F)c1cccc(N2CCN(CCc3ccccc3)CC2)c1` [1-phenethyl-4-(3-trifluoromethyl-phenyl)-piperazine], the IC50 on 5-HT1A receptor was 0.0203 µM. Besides, in the data set with serotonin (5-HT), the “serotonin (5-HT)” value stood at 282±6 ng/g tissue. In addition, in data set [2], the “5-hydroxyindoleacetic acid” value is given as 289±16 ng/g tissue. Also, the “3,4-dihydroxyphenylacetic acid” value in [1] (50 μmol/kg s.c.) is recorded as 1406±77 ng/g tissue.

Regarding `CCCN1CCC(c2cccc(OS(C)(=O)=O)c2)CC1` [Example 14, Methanesulfonic acid 3-(1-propyl-piperidin-4-yl)-phenyl ester], in the data set with non-pre-treated rat (rat, 50 μmol/kg s.c., 30 min session), the behavioral activity amounted to 2126±240 cm/30 min. In addition, in data set [1] (50 μmol/kg s.c.), the “3,4-dihydroxyphenylacetic acid” value was found to be 3208±236 ng/g tissue. Compound `CCCCN1CCC(c2cccc(C(F)(F)F)c2)CC1` (as salt: HCl) [Example 5, 1-Butyl-4-(3-trifluoromethyl-phenyl)piperidine] yielded a melting point of 222 °C. Take `CCCN1CCN(c2ccccc2)CC1` [1-phenyl-4-propyl-piperazine]: in the data set on non-pre-treated rat (setting [7]), the behavioral activity was determined as 1923±204 cm/60 min.

Take `CCCN1CCC(c2ccccc2)CC1` [4-phenyl-1-propyl-piperidine]: the behavioral activity in the data set with non-pre-treated rat (setting [7]) amounted to 2553±471 cm/60 min. Moreover, in data set [3] (d-amphetamine pre-treated, test compound 33 μmol/kg), the “behavioral activity in the d-amphetamine stimulated” value was found to be 13764±2919 cm/60 min. Besides, the “3,4-dihydroxyphenylacetic acid” value in [1] (33 μmol/kg s.c.) came to 1190±70 ng/g tissue. Consider `CCCN1CCC(c2cccc(C#N)c2)CC1` (as salt: fumarate), for which the melting point was determined as 122 °C. Regarding `CCCN1CCC(c2ccc(S(C)(=O)=O)cc2)CC1` [4-(4-methanesulphonyl-phenyl)-1-propyl piperidine], the “3,4-dihydroxyphenylacetic acid” value in [1] (50 μmol/kg s.c.) was determined as 928±51 ng/g tissue.
